Assay results reported in paper PMC11167047 (Cell Death Discovery, 2024).

Key:
Assay in all cases: kinome screen (33PanQinase)
Format in all cases: biochemical
CDK20/CycT1 = biological target: T1, CDK20/CycT1 (Homo sapiens, UniProt Q8IZL9)
T1 construct: purchased Reaction Biology Europe GmbH (formerly ProQinase)
Description: (§1) The Kinome Screening was performed by Reaction Biology Europe GmbH (http://reactionbiology.com; Freiburg i. Br., Germany).

CDK3/CycC = biological target: T2, CDK3/CycC (Homo sapiens, UniProt Q00526)
T2 construct: purchased Reaction Biology Europe GmbH (formerly ProQinase)
Description: as §1

CDK9/CycT1 = biological target: T3, CDK9/CycT1 (Homo sapiens, UniProt P50750)
T3 construct: purchased Reaction Biology Europe GmbH (formerly ProQinase)
Description: as §1

MAPKAPK5 = biological target: T4, MAPKAPK5 (Homo sapiens, UniProt Q8IW41)
T4 construct: purchased Reaction Biology Europe GmbH (formerly ProQinase)
Description: as §1

MKNK1 = biological target: T5, MKNK1 (Homo sapiens, UniProt Q9BUB5)
T5 construct: purchased Reaction Biology Europe GmbH (formerly ProQinase)
Description: as §1

PKCβ2 = biological target: T6, PKCβ2 (Homo sapiens, UniProt P05771)
T6 construct: purchased Reaction Biology Europe GmbH (formerly ProQinase)
Description: as §1

PKCγ = biological target: T7, PKCγ (Homo sapiens, UniProt P05129)
T7 construct: purchased Reaction Biology Europe GmbH (formerly ProQinase)
Description: as §1

PLK1 = biological target: T8, PLK1 (Homo sapiens, UniProt P53350)
T8 construct: purchased Reaction Biology Europe GmbH (formerly ProQinase)
Description: as §1

RAF1 YDYD = biological target: T9, RAF1 YDYD (Homo sapiens, UniProt P04049, Y340D/Y341D)
T9 construct: purchased Reaction Biology Europe GmbH (formerly ProQinase)
Description: as §1

ROS = biological target: T10, ROS (Homo sapiens, UniProt P08922)
T10 construct: purchased Reaction Biology Europe GmbH (formerly ProQinase)
Description: as §1

SAK = biological target: T11, SAK (Homo sapiens, UniProt O00444)
T11 construct: purchased Reaction Biology Europe GmbH (formerly ProQinase)
T11 sequence (O00444 1-970): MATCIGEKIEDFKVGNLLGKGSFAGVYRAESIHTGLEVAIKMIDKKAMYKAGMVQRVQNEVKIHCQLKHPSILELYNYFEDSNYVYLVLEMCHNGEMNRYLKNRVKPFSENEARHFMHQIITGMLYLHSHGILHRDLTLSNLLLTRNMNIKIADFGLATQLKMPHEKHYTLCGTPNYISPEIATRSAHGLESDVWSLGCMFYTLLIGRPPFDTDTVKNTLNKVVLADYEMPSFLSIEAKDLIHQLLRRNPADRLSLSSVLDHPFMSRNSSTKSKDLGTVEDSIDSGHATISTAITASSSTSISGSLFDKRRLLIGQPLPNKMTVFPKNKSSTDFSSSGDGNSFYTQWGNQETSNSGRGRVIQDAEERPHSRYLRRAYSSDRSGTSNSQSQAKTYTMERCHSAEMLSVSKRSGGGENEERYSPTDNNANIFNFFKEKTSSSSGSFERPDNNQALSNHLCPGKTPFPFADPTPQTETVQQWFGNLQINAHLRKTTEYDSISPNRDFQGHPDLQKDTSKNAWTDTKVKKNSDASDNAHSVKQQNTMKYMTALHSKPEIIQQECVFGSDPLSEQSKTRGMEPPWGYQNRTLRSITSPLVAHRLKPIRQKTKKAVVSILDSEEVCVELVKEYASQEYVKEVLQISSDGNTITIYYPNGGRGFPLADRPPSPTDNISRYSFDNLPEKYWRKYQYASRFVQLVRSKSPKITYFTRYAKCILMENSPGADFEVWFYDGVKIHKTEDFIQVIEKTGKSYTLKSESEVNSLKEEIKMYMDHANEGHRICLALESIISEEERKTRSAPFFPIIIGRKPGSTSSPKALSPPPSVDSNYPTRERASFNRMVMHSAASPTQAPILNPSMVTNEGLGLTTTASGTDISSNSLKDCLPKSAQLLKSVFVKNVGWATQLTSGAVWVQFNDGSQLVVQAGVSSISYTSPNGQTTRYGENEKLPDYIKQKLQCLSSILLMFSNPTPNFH
Description: as §1

TGFBR1 = biological target: T12, TGFBR1 (Homo sapiens, UniProt P36897)
T12 construct: purchased Reaction Biology Europe GmbH (formerly ProQinase)
T12 sequence (P36897 34-503): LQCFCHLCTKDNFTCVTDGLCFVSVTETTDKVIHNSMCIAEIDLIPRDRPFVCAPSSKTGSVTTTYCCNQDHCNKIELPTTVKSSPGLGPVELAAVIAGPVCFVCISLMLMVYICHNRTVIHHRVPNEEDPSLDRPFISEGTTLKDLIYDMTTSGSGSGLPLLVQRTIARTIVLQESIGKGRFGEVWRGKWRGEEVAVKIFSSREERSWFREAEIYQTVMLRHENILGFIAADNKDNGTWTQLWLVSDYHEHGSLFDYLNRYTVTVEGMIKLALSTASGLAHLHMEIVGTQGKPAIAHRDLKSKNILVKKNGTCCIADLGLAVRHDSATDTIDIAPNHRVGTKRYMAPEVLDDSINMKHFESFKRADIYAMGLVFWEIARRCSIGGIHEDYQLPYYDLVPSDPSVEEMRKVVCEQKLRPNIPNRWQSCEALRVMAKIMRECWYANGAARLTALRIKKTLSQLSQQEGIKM
Description: as §1

TRKA = biological target: T13, TRKA (Homo sapiens, UniProt P04629)
T13 construct: purchased Reaction Biology Europe GmbH (formerly ProQinase)
Description: as §1

T8 sequence (P53350 whole entry): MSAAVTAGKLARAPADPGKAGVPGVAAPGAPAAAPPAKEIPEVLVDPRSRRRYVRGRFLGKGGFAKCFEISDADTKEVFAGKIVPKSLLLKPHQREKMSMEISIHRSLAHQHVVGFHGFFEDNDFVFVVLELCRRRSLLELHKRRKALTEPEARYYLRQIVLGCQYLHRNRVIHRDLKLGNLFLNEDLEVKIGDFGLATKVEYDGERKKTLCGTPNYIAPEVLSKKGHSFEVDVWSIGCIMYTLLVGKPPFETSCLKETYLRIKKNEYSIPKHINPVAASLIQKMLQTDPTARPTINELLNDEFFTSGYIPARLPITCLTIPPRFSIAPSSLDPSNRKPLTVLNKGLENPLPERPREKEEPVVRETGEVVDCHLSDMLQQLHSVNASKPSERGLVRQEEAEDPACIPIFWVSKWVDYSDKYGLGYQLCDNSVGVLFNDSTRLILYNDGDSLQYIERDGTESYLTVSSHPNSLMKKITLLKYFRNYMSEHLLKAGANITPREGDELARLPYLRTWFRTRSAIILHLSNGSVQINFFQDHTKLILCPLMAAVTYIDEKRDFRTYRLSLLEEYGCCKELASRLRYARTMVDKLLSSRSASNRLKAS
T5 sequence (Q9BUB5 whole entry): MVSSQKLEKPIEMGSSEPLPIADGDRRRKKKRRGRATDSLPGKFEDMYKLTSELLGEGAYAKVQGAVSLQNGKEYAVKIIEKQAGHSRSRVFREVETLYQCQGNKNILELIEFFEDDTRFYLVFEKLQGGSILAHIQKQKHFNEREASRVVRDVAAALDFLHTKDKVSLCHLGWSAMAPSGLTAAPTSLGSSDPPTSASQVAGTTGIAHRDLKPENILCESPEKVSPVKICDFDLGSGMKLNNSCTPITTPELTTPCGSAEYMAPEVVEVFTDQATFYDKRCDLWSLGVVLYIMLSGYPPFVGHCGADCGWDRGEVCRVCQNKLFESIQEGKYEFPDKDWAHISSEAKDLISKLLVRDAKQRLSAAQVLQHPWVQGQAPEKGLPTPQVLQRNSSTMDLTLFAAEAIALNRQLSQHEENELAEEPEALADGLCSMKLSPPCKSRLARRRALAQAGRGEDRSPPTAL
T1 sequence (Q8IZL9 whole entry): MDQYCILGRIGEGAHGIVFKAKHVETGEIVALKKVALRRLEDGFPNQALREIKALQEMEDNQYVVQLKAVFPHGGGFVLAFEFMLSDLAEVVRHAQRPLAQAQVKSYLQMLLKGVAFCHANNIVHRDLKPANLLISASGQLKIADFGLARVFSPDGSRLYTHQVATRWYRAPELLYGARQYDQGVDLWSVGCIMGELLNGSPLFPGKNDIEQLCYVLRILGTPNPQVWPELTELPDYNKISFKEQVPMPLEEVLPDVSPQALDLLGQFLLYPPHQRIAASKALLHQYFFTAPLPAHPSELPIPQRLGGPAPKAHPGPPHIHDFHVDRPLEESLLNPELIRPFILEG
T1 sequence (O60563 whole entry partner): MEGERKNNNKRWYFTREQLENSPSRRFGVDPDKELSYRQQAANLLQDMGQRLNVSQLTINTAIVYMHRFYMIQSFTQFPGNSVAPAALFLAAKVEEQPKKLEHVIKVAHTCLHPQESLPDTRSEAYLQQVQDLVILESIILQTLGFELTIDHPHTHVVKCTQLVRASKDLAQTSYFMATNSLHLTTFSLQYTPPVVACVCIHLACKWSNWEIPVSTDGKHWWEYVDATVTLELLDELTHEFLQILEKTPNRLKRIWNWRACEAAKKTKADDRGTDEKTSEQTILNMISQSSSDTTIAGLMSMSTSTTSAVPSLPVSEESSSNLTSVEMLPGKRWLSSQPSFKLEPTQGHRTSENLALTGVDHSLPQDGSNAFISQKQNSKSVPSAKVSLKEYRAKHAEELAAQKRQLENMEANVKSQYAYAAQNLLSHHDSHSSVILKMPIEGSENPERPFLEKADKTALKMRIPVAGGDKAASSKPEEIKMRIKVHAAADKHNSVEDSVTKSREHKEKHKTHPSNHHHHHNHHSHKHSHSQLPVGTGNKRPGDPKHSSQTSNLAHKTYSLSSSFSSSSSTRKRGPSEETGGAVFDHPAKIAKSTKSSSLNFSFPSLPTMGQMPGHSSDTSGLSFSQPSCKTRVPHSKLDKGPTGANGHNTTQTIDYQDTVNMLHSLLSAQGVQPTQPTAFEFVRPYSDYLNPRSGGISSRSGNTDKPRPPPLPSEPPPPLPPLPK
T3 sequence (P50750 whole entry): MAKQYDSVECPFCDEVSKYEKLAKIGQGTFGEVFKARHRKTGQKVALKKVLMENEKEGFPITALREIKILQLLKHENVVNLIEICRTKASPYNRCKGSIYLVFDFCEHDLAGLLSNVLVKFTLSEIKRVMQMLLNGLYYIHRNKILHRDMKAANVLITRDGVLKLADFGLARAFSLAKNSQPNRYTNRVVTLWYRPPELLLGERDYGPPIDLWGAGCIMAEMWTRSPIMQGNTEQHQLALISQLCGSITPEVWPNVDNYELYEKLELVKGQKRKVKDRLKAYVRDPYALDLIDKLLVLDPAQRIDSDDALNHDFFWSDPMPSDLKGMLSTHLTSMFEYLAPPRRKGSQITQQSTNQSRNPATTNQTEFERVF
T3 sequence (O60563 whole entry partner): as the sequence (O60563 whole entry partner) above
T9 sequence (P04049 306-648 Y340D/Y341D limits assumed): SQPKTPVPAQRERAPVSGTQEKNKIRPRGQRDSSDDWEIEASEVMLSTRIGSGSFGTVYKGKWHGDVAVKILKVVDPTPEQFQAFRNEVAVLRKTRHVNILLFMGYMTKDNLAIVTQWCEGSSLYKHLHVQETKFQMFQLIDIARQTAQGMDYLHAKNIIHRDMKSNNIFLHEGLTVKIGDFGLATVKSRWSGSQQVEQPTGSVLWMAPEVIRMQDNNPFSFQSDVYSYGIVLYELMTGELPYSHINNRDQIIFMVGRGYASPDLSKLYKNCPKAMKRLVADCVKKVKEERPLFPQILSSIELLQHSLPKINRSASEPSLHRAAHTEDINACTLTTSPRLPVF
T2 sequence (Q00526 whole entry): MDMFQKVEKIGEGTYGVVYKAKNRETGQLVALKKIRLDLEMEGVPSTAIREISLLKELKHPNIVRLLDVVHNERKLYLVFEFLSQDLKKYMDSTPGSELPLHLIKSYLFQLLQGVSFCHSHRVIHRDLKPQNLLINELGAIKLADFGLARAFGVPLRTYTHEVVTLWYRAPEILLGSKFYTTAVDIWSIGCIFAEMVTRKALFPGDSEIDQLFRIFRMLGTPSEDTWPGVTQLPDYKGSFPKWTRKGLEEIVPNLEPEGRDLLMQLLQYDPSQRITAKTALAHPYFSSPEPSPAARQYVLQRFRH
T2 sequence (P24863 whole entry partner): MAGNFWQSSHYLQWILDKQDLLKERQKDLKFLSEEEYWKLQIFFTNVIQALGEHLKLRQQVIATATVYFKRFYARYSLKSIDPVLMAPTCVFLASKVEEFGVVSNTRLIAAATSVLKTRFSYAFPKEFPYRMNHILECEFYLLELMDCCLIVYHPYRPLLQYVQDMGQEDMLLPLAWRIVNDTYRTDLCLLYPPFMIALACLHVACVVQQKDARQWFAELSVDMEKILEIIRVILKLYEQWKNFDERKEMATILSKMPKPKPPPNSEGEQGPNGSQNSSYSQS
T6 sequence (P05771 1-673 isoform P05771-2): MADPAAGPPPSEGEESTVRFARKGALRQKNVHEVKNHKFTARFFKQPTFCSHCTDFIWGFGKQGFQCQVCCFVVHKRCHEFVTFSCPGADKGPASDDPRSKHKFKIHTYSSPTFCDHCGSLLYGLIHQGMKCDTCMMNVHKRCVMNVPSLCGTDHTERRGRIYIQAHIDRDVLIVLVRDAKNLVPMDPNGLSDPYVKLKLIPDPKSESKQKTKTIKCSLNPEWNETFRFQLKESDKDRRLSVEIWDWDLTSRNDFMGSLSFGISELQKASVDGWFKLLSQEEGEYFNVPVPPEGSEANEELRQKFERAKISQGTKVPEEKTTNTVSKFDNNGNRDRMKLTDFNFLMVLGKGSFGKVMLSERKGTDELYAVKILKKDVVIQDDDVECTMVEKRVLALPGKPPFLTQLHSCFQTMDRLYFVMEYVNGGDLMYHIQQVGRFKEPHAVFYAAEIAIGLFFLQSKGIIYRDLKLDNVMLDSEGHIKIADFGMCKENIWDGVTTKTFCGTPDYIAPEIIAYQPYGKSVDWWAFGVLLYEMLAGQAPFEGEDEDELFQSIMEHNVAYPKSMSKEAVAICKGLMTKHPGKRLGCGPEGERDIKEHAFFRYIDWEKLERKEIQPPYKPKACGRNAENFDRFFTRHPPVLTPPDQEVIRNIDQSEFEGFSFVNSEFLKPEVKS

`c1ccc(CNc2cc(-c3c[nH]c4ncccc34)ccn2)cc1` [meriolin 36] was tested, and the residual kinase activity (CDK20/CycT1; 0.3 µM) was 19 % of control, the residual kinase activity (CDK20/CycT1; 3 µM) was 10 % of control and the residual kinase activity (CDK3/CycC; 0.3 µM) was 9 % of control. For the same molecule, the residual kinase activity (CDK3/CycC; 3 µM) was 3 % of control, the residual kinase activity (CDK9/CycT1; 0.3 µM) was 1 % of control and the residual kinase activity (CDK9/CycT1; 3 µM) was 0 % of control. The residual kinase activity (MAPKAPK5; 3 µM) was 69 % of control, the residual kinase activity (MKNK1; 0.3 µM) was 48 % of control and the residual kinase activity (MKNK1; 3 µM) was 16 % of control. For the same molecule, the residual kinase activity (PKCβ2; 0.3 µM) was 51 % of control, the residual kinase activity (PKCβ2; 3 µM) was 11 % of control and the residual kinase activity (PKCγ; 0.3 µM) was 33 % of control. For the same molecule, the residual kinase activity (PKCγ; 3 µM) was 5 % of control, the residual kinase activity (PLK1; 0.3 µM) was 100 % of control and the residual kinase activity (PLK1; 3 µM) was 66 % of control. The residual kinase activity (RAF1 YDYD; 0.3 µM) was 67 % of control, the residual kinase activity (RAF1 YDYD; 3 µM) was 67 % of control and the residual kinase activity (ROS; 0.3 µM) was 26 % of control. For the same molecule, the residual kinase activity (ROS; 3 µM) was 5 % of control, the residual kinase activity (SAK; 0.3 µM) was 53 % of control and the residual kinase activity (SAK; 3 µM) was 24 % of control. The residual kinase activity (TGFBR1; 0.3 µM) was 18 % of control, the residual kinase activity (TGFBR1; 3 µM) was 0 % of control and the residual kinase activity (TRKA; 0.3 µM) was 9 % of control. For the same molecule, the residual kinase activity (TRKA; 3 µM) was 1 % of control.

For `COc1ccnc2[nH]cc(-c3cc(N)nc(N)c3)c12` [meriolin 16], the residual kinase activity (CDK20/CycT1; 0.03 µM) was 36 % of control, the residual kinase activity (CDK20/CycT1; 0.3 µM) was 17 % of control and the residual kinase activity (CDK3/CycC; 0.03 µM) was 71 % of control. For the same molecule, the residual kinase activity (CDK3/CycC; 0.3 µM) was 20 % of control, the residual kinase activity (CDK9/CycT1; 0.03 µM) was 13 % of control and the residual kinase activity (CDK9/CycT1; 0.3 µM) was 2 % of control. For the same molecule, the residual kinase activity (MAPKAPK5; 0.3 µM) was 85 % of control, the residual kinase activity (MKNK1; 0.03 µM) was 97 % of control and the residual kinase activity (MKNK1; 0.3 µM) was 70 % of control. The residual kinase activity (PKCβ2; 0.03 µM) was 106 % of control, the residual kinase activity (PKCβ2; 0.3 µM) was 71 % of control and the residual kinase activity (PKCγ; 0.03 µM) was 99 % of control. For the same molecule, the residual kinase activity (PKCγ; 0.3 µM) was 54 % of control, the residual kinase activity (PLK1; 0.03 µM) was 95 % of control and the residual kinase activity (PLK1; 0.3 µM) was 90 % of control. For the same molecule, the residual kinase activity (RAF1 YDYD; 0.03 µM) was 77 % of control, the residual kinase activity (RAF1 YDYD; 0.3 µM) was 96 % of control and the residual kinase activity (ROS; 0.03 µM) was 92 % of control. For the same molecule, the residual kinase activity (ROS; 0.3 µM) was 81 % of control, the residual kinase activity (SAK; 0.03 µM) was 97 % of control and the residual kinase activity (SAK; 0.3 µM) was 84 % of control. For the same molecule, the residual kinase activity (TGFBR1; 0.03 µM) was 65 % of control, the residual kinase activity (TGFBR1; 0.3 µM) was 67 % of control and the residual kinase activity (TRKA; 0.03 µM) was 83 % of control. For the same molecule, the residual kinase activity (TRKA; 0.3 µM) was 40 % of control.
